The structures appear in SMILES notation. “Also recorded” adds a separate entry of the source.

The test system of one series is Neospora caninum NC-1. Nature of the series: Microtiter Monolayer Disruption Assay (MMDA), Neospora caninum. The series is classed as cell-based, Neospora caninum strain NC-1. The note with it: BT cells. The protocol:
In order to determine the scope of protection provided by Ponazuril, in vitro testing was conducted. The following strains of parasites were evaluated for their sensitivity to this compound: Strain SN3 of Sarcocystis neurona; strain SF1 of Sarcocystis falcatula; strain RH of Toxoplasma gondii; and the NC-1 strain of Neospora caninum. […]
Bovine turbinate (BT) cells were used for all in vitro studies. Cells were grown to confluency in 25 cm^2 flasks in RMPI 1640 media supplemented with 10% v/v fetal bovine serum (FBS), 100 Units penicillin (G/mL), […] streptomycin/mL and 5×10^-2 mM 2-mercpatoethanol. After cell confluence was obtained, cells were maintained in the same media with reduced FBS (2% v/v). Cell cultures were incubated at 37 C. in a humidified atmosphere containing 5% carbon dioxide and 95% air.
For growth of parasites, BT cell monolayers were infected with parasites and examined with an inverted microscope for the development of lesions (cytopathic effect, "CPE") or the presence of many extracellular merozoites. Once lesions were observed, or many extracellular parasites were present, the monolayer was scraped with the tip of a 5 mL pipette and 1 to 3 drops of the merozoite-containing fluid was transferred to two flasks of fresh BT cells. Merozoites of S. neurona and S. falcatula were passaged in this manner every 5 to 10 days while the tachyzoites of T. gondii and N. caninum were passaged every 3 to 4 days.
The assay used to determine the effectiveness of Ponazuril was the Microtiter Monolayer Disruption Assay (MMDA). This assay was used to determine if the parasites or compound were toxic for BT cells. Flat bottomed 96-well microtiter plates were inoculated with BT cells and the resulting monolayers were used to determine the effects of Toltrazuril and Ponazuril on merozoite production as measured by CPE (plaque formation). […]

The nature of series [1]: Passing of the blood-brain barrier in horses. The series is classed as in vivo. As to conditions: after oral Toltrazuril daily for 10 days. The protocol:
This experiment was conducted in order to determine whether triazineones such as Toltrazuril can pass the blood-brain barrier. Normal horses were divided into three groups of three horses per group. Group 1 horses received Toltrazuril administered orally as a 5% suspension at a dose level of 2.5 mg/Kg. Group 2 horses received Toltrazuril administered orally as a 5% suspension at a dose level of 5.0 mg/Kg. Group 3 horses received Toltrazuril administered orally as a 5% suspension at a dose level of 7.5 mg/Kg. The dosing was repeated daily for 10 days. Blood samples were drawn at 48, 96 and 240 hours and the concentration of Toltrazuril, Toltrazuril sulfoxide and Ponazuril in the serum was measured. Ten days after the start of the treatment (Day 10), a sample of cerebral spinal fluid was removed from each horse and the concentrations of Toltrazuril, Toltrazuril Sulfoxide and Ponazuril were again measured in these samples. The concentrations of Toltrazuril, Toltrazuril Sulfoxide and Ponazuril in the serum and cerebral spinal fluid are reported in TABLES 5a and 5b.

Regarding `Cc1cc(-n2c(=O)[nH]c(=O)n(C)c2=O)ccc1Oc1ccc(S(=O)(=O)C(F)(F)F)cc1` [Ponazuril], the inhibition at 0.001 µg/mL in the series with Neospora caninum NC-1 (0.001 μg/mL, read-out: Percent Inhibition of Cell Destruction, 0.001 μg/mL) worked out at 3%. Further, in the series on Neospora caninum NC-1 (0.01 μg/mL, read-out: Percent Inhibition of Cell Destruction, 0.01 μg/mL), the inhibition at 0.01 µg/mL is 13%. Besides, the inhibition at 1 µg/mL in the series on Neospora caninum NC-1 (1.0 μg/mL, read-out: Percent Inhibition of Cell Destruction, 1.0 μg/mL) was 100%. In addition, the “crossing of the blood-brain barrier” value in series [1] was “effectively cross the blood-brain barrier; also recorded: crosses this barrier more effectively than does Toltrazuril”.

For the origin of these results see patent US6150361A, “Triazineone compounds for treating diseases due to sarcosystis, neospora and toxoplasma” (Bayer Corporation, priority 1998, dated 2000).
